The data set can be described thus: in vitro. Particulars: human, hek293t cells.
In the case of `C=CC(=O)NCCC(=O)N1CCN(c2ccc(C#N)cc2F)CC1` [3-D07, N-{3-[4-(4-cyano-2-fluorophenyl)piperazin-1-yl]-3-oxopropyl}prop-2-enamide], the viability at 48 h, 25 µM turned out to be 56.6%. Then `Cc1cc(F)c(C(=O)CCl)cc1F` [10-L19, 2-chloro-1-(2,5-difluoro-4-methylphenyl)ethan-1-one], with 87%; and `C=CCNC(=O)C(C#N)=Cc1ccc(C#N)cc1` [8-O07, 2-cyano-3-(4-cyanophenyl)-N-(prop-2-en-1-yl)prop-2-enamide], with 85.6%; and `CC(C)NC(=O)C(C#N)=Cc1ccccc1OC(C)C` [9-C15, 2-cyano-N-(propan-2-yl)-3-[2-(propan-2-yloxy)phenyl]prop-2-enamide], with 112%. On to `C=CC(=O)N(C)CC(=O)N1CCC2(CC1)CC2c1nnc(C(C)C)o1` (stereo not drawn) [2-N22, N-methyl-N-(2-oxo-2-{1-[5-(propan-2-yl)-1,3,4-oxadiazol-2-yl]-6-azaspiro[2.5]octan-6-yl}ethyl)prop-2-enamide], for which the viability at 48 h, 25 µM is 84.6%. For the compound `CCC(C)C1CN(Cc2ccc(C)nc2)CCN1C(=O)C(C)Cl` (stereo not drawn) [7-O16, 1-[2-(butan-2-yl)-4-[(6-methylpyridin-3-yl)methyl]piperazin-1-yl]-2-chloropropan-1-one], the viability at 48 h, 25 µM stood at 74.9%. Take `C=CC(=O)NCCC(=O)N1CCCN(c2cccnn2)CC1` [2-P16, N-{3-oxo-3-[4-(pyridazin-3-yl)-1,4-diazepan-1-yl]propyl}prop-2-enamide]: the viability at 48 h, 25 µM amounted to 77.8%. Then `Cc1cc(C(=O)CCl)c(C)n1-c1cccc([N+](=O)[O-])c1` [10-B16, 2-chloro-1-[2,5-dimethyl-1-(3-nitrophenyl)-1H-pyrrol-3-yl]ethan-1-one], with 0.976%; and `C=CC(=O)NCCN1C(=O)COc2ccccc21` [2-P07, N-[2-(3-oxo-3,4-dihydro-2H-1,4-benzoxazin-4-yl)ethyl]prop-2-enamide], with 60.4%; and `CSc1ccc(C=C(C#N)C(=O)Nc2cccc(Cl)c2C)cc1` [8-N11, N-(3-chloro-2-methylphenyl)-2-cyano-3-[4-(methylsulfanyl)phenyl]prop-2-enamide], with 103%. Then `C=CC(=O)NC1(Cc2nnc3ccccn23)CCCCC1` [2-L03, N-[1-({[1,2,4]triazolo[4,3-a]pyridin-3-yl}methyl)cyclohexyl]prop-2-enamide], with 76.2%. Regarding `Cc1cccc(NC(=O)c2ccccc2NC(=O)CCl)c1` [4-C10, 2-(2-chloroacetamido)-N-(3-methylphenyl)benzamide], the viability at 48 h, 25 µM was -0.0841%. Consider `C=CC(=O)NCc1cn(-c2ccccc2)nn1` [2-I13, N-[(1-phenyl-1H-1,2,3-triazol-4-yl)methyl]prop-2-enamide], for which the viability at 48 h, 25 µM was determined as 76.1%. Turning to `N#CC(=Cc1ccco1)C(=O)NCc1ccc(-c2cccnc2)cc1` [9-F16, 2-cyano-3-(furan-2-yl)-N-{[4-(pyridin-3-yl)phenyl]methyl}prop-2-enamide], the viability at 48 h, 25 µM is 100%. As for `O=C(CCl)NC1CCN(C(=O)C2COc3ccccc3O2)CC1` (stereo not drawn) [5-C09, 2-chloro-N-[1-(2,3-dihydro-1,4-benzodioxine-2-carbonyl)piperidin-4-yl]acetamide], the viability at 48 h, 25 µM is 1.13%.

For the compound `CN(C)S(=O)(=O)c1ccc(NC(=O)CCl)cc1` [5-J11, 2-chloro-N-[4-(dimethylsulfamoyl)phenyl]acetamide], the viability at 48 h, 25 µM amounted to 1.08%. In the case of `C=CC(=O)N1CC(C)OC2(CCOCC2)C1` (stereo not drawn) [3-I12, 1-{2-methyl-1,9-dioxa-4-azaspiro[5.5]undecan-4-yl}prop-2-en-1-one], the viability at 48 h, 25 µM was 91.6%. With `Cc1ccc(C=C(C#N)C(=O)Nc2ccccc2C(F)(F)F)cc1` [8-E16, 2-cyano-3-(4-methylphenyl)-N-[2-(trifluoromethyl)phenyl]prop-2-enamide], the viability at 48 h, 25 µM was determined as 96.3%. As for `COc1ccc2cc(C=C(C#N)C(=O)Nc3nccs3)ccc2c1` [9-E08, 2-cyano-3-(6-methoxynaphthalen-2-yl)-N-(1,3-thiazol-2-yl)prop-2-enamide], the viability at 48 h, 25 µM came out at 63.3%. Then `O=C(CCl)Nc1cc(S(=O)(=O)N2CCCC2)ccc1Cl` [6-G14, 2-chloro-N-[2-chloro-5-(pyrrolidine-1-sulfonyl)phenyl]acetamide], with 1.44%; and `CC(Cl)C(=O)NCCN1CCn2nccc2C1` (stereo not drawn) [5-D13, 2-chloro-N-(2-{4H,5H,6H,7H-pyrazolo[1,5-a]pyrazin-5-yl}ethyl)propanamide], with 98.4%. Then `CN(C)C1=NC(N)=NC(=C(C#N)C(=O)CCl)N1` [10-P20, 2-[4-amino-6-(dimethylamino)-1,2-dihydro-1,3,5-triazin-2-ylidene]-4-chloro-3-oxobutanenitrile], with 104%.

As to `C=CC(=O)NCc1nc2ccccc2s1` [1-I12, N-[(1,3-benzothiazol-2-yl)methyl]prop-2-enamide], the viability at 48 h, 25 µM came out at 35.8%.

Take `CCc1nsc(N2CCCN(C(=O)C(C)Cl)CC2)n1` (stereo not drawn) [7-B15, 2-chloro-1-[4-(3-ethyl-1,2,4-thiadiazol-5-yl)-1,4-diazepan-1-yl]propan-1-one]: the viability at 48 h, 25 µM is 84.3%. Consider `C=CC(=O)Nc1ccc(-c2noc(C)n2)cc1` [1-K16, N-[4-(5-methyl-1,2,4-oxadiazol-3-yl)phenyl]prop-2-enamide], for which the viability at 48 h, 25 µM worked out at 60.2%. In the case of `O=C(CCl)NC1CCS(=O)(=O)CC1` [6-M08, 2-chloro-N-(1,1-dioxo-1lambda6-thian-4-yl)acetamide] it was 53.7%. In the case of `Cc1ncsc1C=C(C#N)C(=O)Nc1ccc(C(=O)N(C)C)cc1` [9-J16, 4-[2-cyano-3-(4-methyl-1,3-thiazol-5-yl)prop-2-enamido]-N,N-dimethylbenzamide] it was 118%; in that of `CC(Cl)C(=O)N1CCn2c(C#N)ccc2C1C` (stereo not drawn) [6-F22, 2-(2-chloropropanoyl)-1-methyl-1H,2H,3H,4H-pyrrolo[1,2-a]pyrazine-6-carbonitrile], 98.2%; in that of `CN(C(=O)CCl)C(c1ccccc1)c1ccccc1` [5-H06, 2-chloro-N-(diphenylmethyl)-N-methylacetamide], 0.0655%. As for `O=C(Nc1cccc(-c2nnco2)c1)N1CCSSCC1` [10-P09, N-[3-(1,3,4-oxadiazol-2-yl)phenyl]-1,2,5-dithiazepane-5-carboxamide], the viability at 48 h, 25 µM worked out at 116%. `C=CC(=O)NCc1cn(C2CCC2)nn1` [3-D09, N-[(1-cyclobutyl-1H-1,2,3-triazol-4-yl)methyl]prop-2-enamide]: the viability at 48 h, 25 µM was 48.7%.

For `COc1ccc(S(=O)(=O)N(C)C)cc1NC(=O)CCl` [4-E05, 2-chloro-N-[5-(dimethylsulfamoyl)-2-methoxyphenyl]acetamide], the viability at 48 h, 25 µM was determined as 0.891%.

Turning to `C=CC(=O)NCc1ccc(N2CCCC(C(N)=O)C2)cc1` (stereo not drawn) [1-P19, 1-{4-[(prop-2-enamido)methyl]phenyl}piperidine-3-carboxamide], the viability at 48 h, 25 µM is 126%.

With `C=CC(=O)NCC(O)c1ncccc1OC` (stereo not drawn) [2-J11, N-[2-hydroxy-2-(3-methoxypyridin-2-yl)ethyl]prop-2-enamide], the viability at 48 h, 25 µM was 80.8%.

Regarding `C=CC(=O)N1CCC(C(=O)N2CCC(C(C)(C)O)CC2)CC1` [2-H14, 1-{4-[4-(2-hydroxypropan-2-yl)piperidine-1-carbonyl]piperidin-1-yl}prop-2-en-1-one], the viability at 48 h, 25 µM came out at 60.8%. As for `N#CC(=Cc1ccncc1)C(=O)Nc1ccccc1Cl` [8-N17, N-(2-chlorophenyl)-2-cyano-3-(pyridin-4-yl)prop-2-enamide], the viability at 48 h, 25 µM was determined as 112%. Turning to `C=CC(=O)N1CCC(C(=O)N2CCC(NC(=O)NC)CC2)CC1` [2-H18, 3-methyl-1-{1-[1-(prop-2-enoyl)piperidine-4-carbonyl]piperidin-4-yl}urea], the viability at 48 h, 25 µM stood at 83%. Consider `Cc1ccc(C(CNC(=O)C(C)Cl)N2CCOCC2)s1` (stereo not drawn) [7-N13, 2-chloro-N-[2-(5-methylthiophen-2-yl)-2-(morpholin-4-yl)ethyl]propanamide], for which the viability at 48 h, 25 µM came out at 108%. On to `CC(C)NC(=O)C(C#N)=Cc1ccc(C#N)cc1` [9-M11, 2-cyano-3-(4-cyanophenyl)-N-(propan-2-yl)prop-2-enamide], for which the viability at 48 h, 25 µM was 123%. `C=CC(=O)NC1COC(C)C1` (stereo not drawn) [1-H17, N-(5-methyloxolan-3-yl)prop-2-enamide]: the viability at 48 h, 25 µM came to 106%. In the case of `CCCC(=O)N1CCC(NC(=O)CCl)c2ccccc21` (stereo not drawn) [6-E16, N-(1-butanoyl-1,2,3,4-tetrahydroquinolin-4-yl)-2-chloroacetamide], the viability at 48 h, 25 µM was determined as 17.5%. As to `CC(Cl)C(=O)NCC1=CCCOC1` (stereo not drawn) [7-I05, 2-chloro-N-[(5,6-dihydro-2H-pyran-3-yl)methyl]propanamide], the viability at 48 h, 25 µM is 89.9%. On to `CCOc1ccccc1NC(=O)C(C#N)=Cc1ccc2c(c1)OCO2` [9-P05, 3-(1,3-dioxaindan-5-yl)-2-cyano-N-(2-ethoxyphenyl)prop-2-enamide], for which the viability at 48 h, 25 µM worked out at 136%.

Consider `COC(=O)c1c(-c2ccccc2Cl)csc1NC(=O)CCl` [4-F07, methyl 2-(2-chloroacetamido)-4-(2-chlorophenyl)thiophene-3-carboxylate], for which the viability at 48 h, 25 µM came out at 5.7%. On to `N#CC(=Cc1ccc([N+](=O)[O-])c(Cl)c1)C(=O)NC1CCCCC1` [8-B08, 3-(3-chloro-4-nitrophenyl)-2-cyano-N-cyclohexylprop-2-enamide], for which the viability at 48 h, 25 µM worked out at 0.92%. `C=CC(=O)NCc1cn([C@@H]2COC[C@H]2OC)nn1` [1-J17, N-({1-[(3R,4S)-4-methoxyoxolan-3-yl]-1H-1,2,3-triazol-4-yl}methyl)prop-2-enamide]: the viability at 48 h, 25 µM was 96.5%.

`C=CC(=O)N(C)CC(=O)N1CCCCC1c1nc(C)c(C)s1` (stereo not drawn) [2-E20, N-{2-[2-(4,5-dimethyl-1,3-thiazol-2-yl)piperidin-1-yl]-2-oxoethyl}-N-methylprop-2-enamide]: the viability at 48 h, 25 µM stood at 116%. Then `CC1CN(Cc2ccccc2)CC(C)N(C(=O)C(C)Cl)C1` (stereo not drawn) [5-B21, 1-(4-benzyl-2,6-dimethyl-1,4-diazepan-1-yl)-2-chloropropan-1-one], with 122%.

The record behind these values is publication PMC11995724, “Antibiotic target discovery by integrated phenotypic and activity-based profiling of electrophilic fragments” (Cell chemical biology, 2025).
